Results: ChEMBL document CHEMBL5247598 (Eur J Med Chem, 2022)
The source made the active and inactive calls. The rule behind the calls is not given here.

Tests used:
P-gp = experiment: Therapeutic index, ratio of IC50 for cytotoxicity against human HEK293T cells to EC50 for reversal of P-gp-mediated multidrug resistance in human NCI-ADR-RES cells; type: toxicity, cell-based; details: read-out: Ratio IC50/EC50
NCI-ADR-RES [1] = experiment: Inhibition of PI3K/AKT signaling pathway in human NCI-ADR-RES cells assessed as decrease in PI3K phosphorylation at 3 uM incubated for 24 to 48 hrs in presence of doxorubicin by Western blot analysis; type: cell-based; details: time 24-48 hrs
NCI/ADR-RES [2] = experiment: Induction of apoptosis in human NCI-ADR-RES cells assessed as necrotic cells at 3 uM incubated for 24 hrs by Annexin V-FITC and DAPI staining based flow cytometry (Rvb= 0.55 %); type: functional
NCI/ADR-RES [3] = experiment: Induction of apoptosis in human NCI-ADR-RES cells assessed as viable cells at 3 uM incubated for 48 hrs by Annexin V-FITC and DAPI staining based flow cytometry (Rvb= 97.9 %); type: functional; details: read-out: Activity
NCI/ADR-RES [4] = experiment: Induction of apoptosis in human NCI-ADR-RES cells assessed as late apoptotic cells at 8 uM incubated for 24 hrs in presence of doxorubicin by Annexin V-FITC and DAPI staining based flow cytometry (Rvb= 0.66 %); type: functional
A549 = experiment: Antiproliferative activity against human A549 cells assessed as inhibition of cell growth at 50 uM incubated for 48 hrs by MTT assay; type: functional, cell-based
HEK-293T [5] = experiment: Cytotoxicity against human HEK293T cells assessed as cell survival rate at 10 uM incubated for 48 hrs by MTT assay; type: toxicity, cell-based
[6] = Cytotoxicity against human HEK293T cells assessed as reduction in cell viability incubated for 48 hrs by MTT assay; type: toxicity, cell-based, HEK-293T
NCI/ADR-RES [7] = experiment: Induction of apoptosis in human NCI-ADR-RES cells assessed as early apoptotic cells at 3 uM incubated for 48 hrs by Annexin V-FITC and DAPI staining based flow cytometry (Rvb= 0.89 %); type: functional
NCI/ADR-RES [8] = experiment: Reversal of P-gp-mediated multidrug resistance in human NCI-ADR-RES cells assessed as change in ABCB1 expression level at 1 to 10 uM incubated for 48 hrs in presence of doxorubicin by Western blot analysis; type: functional, cell-based; details: dose 1-10 µM
[9] = Cytotoxicity against mouse MPC-5 cells assessed as inhibition of cell growth at 50 uM incubated for 48 hrs by MTT assay; type: toxicity, cell-based; details: mpc-5, 48 h
L02 = experiment: Cytotoxicity against human L02 cells assessed as inhibition of cell growth at 50 uM incubated for 48 hrs by MTT assay; type: toxicity, cell-based; details: l02, 48 h
NCI-ADR-RES [10] = experiment: Inhibition of PI3K/AKT signaling pathway in human NCI-ADR-RES cells assessed as decrease in AKT phosphorylation at 3 uM incubated for 24 to 48 hrs in presence of doxorubicin by Western blot analysis; type: cell-based; details: time 24-48 hrs
NCI/ADR-RES [11] = experiment: Induction of apoptosis in human NCI-ADR-RES cells assessed as late apoptotic cells at 3 uM incubated for 48 hrs by Annexin V-FITC and DAPI staining based flow cytometry (Rvb= 0.66 %); type: functional
NCI/ADR-RES [12] = experiment: Reversal of P-gp-mediated multidrug resistance in human NCI-ADR-RES cells assessed as change in ABCB1 expression level at 1 to 10 uM incubated for 48 hrs by Western blot analysis; type: functional, cell-based; details: dose 1-10 µM
NCI/ADR-RES [13] = experiment: Reversal fold, ratio of doxorubicin IC50 to doxorubicin IC50 in presence of 10 uM test compound for reversal of P-gp-mediated multidrug resistance in human NCI-ADR-RES cells incubated for 48 hrs by MTT assay; type: functional
NCI/ADR-RES [14] = experiment: Reversal of P-gp-mediated multidrug resistance in human NCI-ADR-RES cells assessed as change in ABCB1 expression level at 1 to 10 uM incubated for 24 hrs in presence of doxorubicin by Western blot analysis; type: functional, cell-based; details: dose 1-10 µM
A549/TR = experiment: Antiproliferative activity against human Taxol resistant A549 cells assessed as inhibition of cell growth at 50 uM incubated for 48 hrs by MTT assay; type: functional, cell-based
NCI/ADR-RES [15] = experiment: Antiproliferative activity against human multidrug resistant NCI-ADR-RES cells overexpressing P-gp assessed as reduction in cell viability incubated for 48 hrs by MTT assay; type: functional, cell-based
NCI-ADR-RES [16] = experiment: Inhibition of PI3K/AKT signaling pathway in human NCI-ADR-RES cells assessed as increase in cleaved PARP level at 3 uM incubated for 24 to 48 hrs in presence of doxorubicin by Western blot analysis; type: cell-based; details: time 24-48 hrs
NCI/ADR-RES [17] = experiment: Induction of apoptosis in human NCI-ADR-RES cells assessed as late apoptotic cells at 3 uM incubated for 24 hrs by Annexin V-FITC and DAPI staining based flow cytometry (Rvb= 0.66 %); type: functional
NCI-ADR-RES [18] = experiment: Inhibition of PI3K/AKT signaling pathway in human NCI-ADR-RES cells assessed as changes in caspase-6 level at 3 uM incubated for 24 to 48 hrs in presence of doxorubicin by Western blot analysis; type: cell-based; details: time 24-48 hrs
MCF7 = experiment: Antiproliferative activity against human MCF7 cells assessed as reduction in cell viability incubated for 48 hrs by MTT assay; type: functional, cell-based; details: MCF7, 48 h, read-out: IC50
NCI/ADR-RES [19] = experiment: Induction of apoptosis in human NCI-ADR-RES cells assessed as necrotic cells at 8 uM incubated for 24 hrs in presence of doxorubicin by Annexin V-FITC and DAPI staining based flow cytometry (Rvb= 0.55 %); type: functional
HEK-293T [20] = experiment: Cytotoxicity against human HEK293T cells assessed as inhibition of cell growth at 50 uM incubated for 48 hrs by MTT assay; type: toxicity, cell-based
NCI-ADR-RES [21] = experiment: Inhibition of PI3K/AKT signaling pathway in human NCI-ADR-RES cells assessed as decrease in Bcl-2 level at 3 uM incubated for 24 to 48 hrs in presence of doxorubicin by Western blot analysis; type: cell-based; details: time 24-48 hrs
NCI/ADR-RES [22] = experiment: Induction of apoptosis in human NCI-ADR-RES cells assessed as viable cells at 3 uM incubated for 24 hrs by Annexin V-FITC and DAPI staining based flow cytometry (Rvb= 97.9 %); type: functional; details: read-out: Activity
NCI/ADR-RES [23] = experiment: Induction of apoptosis in human NCI-ADR-RES cells assessed as viable cells at 8 uM incubated for 24 hrs in presence of doxorubicin by Annexin V-FITC and DAPI staining based flow cytometry (Rvb= 97.9 %); type: functional; details: read-out: Activity
NCI/ADR-RES [24] = experiment: Induction of apoptosis in human NCI-ADR-RES cells assessed as early apoptotic cells at 8 uM incubated for 24 hrs in presence of doxorubicin by Annexin V-FITC and DAPI staining based flow cytometry (Rvb= 0.89 %); type: functional
NCI/ADR-RES [25] = experiment: Reversal of P-gp-mediated multidrug resistance in human NCI-ADR-RES cells assessed as potentiation of doxorubicin-induced cytotoxicity incubated for 48 hrs by MTT assay; type: functional, cell-based
NCI/ADR-RES [26] = experiment: Antiproliferative activity against human multidrug resistant NCI-ADR-RES cells assessed as inhibition of cell growth at 50 uM incubated for 48 hrs by MTT assay; type: functional, cell-based
NCI/ADR-RES [27] = experiment: Induction of apoptosis in human NCI-ADR-RES cells assessed as early apoptotic cells at 8 uM incubated for 48 hrs in presence of doxorubicin by Annexin V-FITC and DAPI staining based flow cytometry (Rvb= 0.89 %); type: functional

C=C1[C@H](OC(C)=O)[C@@H](OC(C)=O)[C@@H](OC(C)=O)C(C)(C)/C=C/[C@H](C)[C@H](OC(=O)c2ccccc2)[C@@]2(O)C[C@@](C)(OC(=O)C(C)(C)C)[C@H](OC(C)=O)[C@@H]2[C@H]1OCC(C)C
selectivity ratio (P-gp): 309 | inhibition (NCI-ADR-RES [1]): Active | Activity (NCI/ADR-RES [2]): 1.06% | viability at 3 µM (NCI/ADR-RES [3]): 98.4% | Activity (NCI/ADR-RES [4]): 1.56% | Activity (A549): inactive | Activity (HEK-293T [5]): Non-Toxic | IC50 at 48 h [6]: 56.3 µM | Activity (NCI/ADR-RES [7]): 0.69% | Activity (NCI/ADR-RES [8]): Active | Activity [9]: Non-Toxic | Activity (L02): Non-Toxic | inhibition (NCI-ADR-RES [10]): Active | Activity (NCI/ADR-RES [11]): 0.73% | Activity (NCI/ADR-RES [12]): inactive | Ratio IC50 (NCI/ADR-RES [13]): 116.6 | Activity (NCI/ADR-RES [14]): Active | Activity (A549/TR): inactive | IC50 (NCI/ADR-RES [15]): > 100 µM | inhibition (NCI-ADR-RES [16]): Active | Activity (NCI/ADR-RES [17]): 0.73% | inhibition (NCI-ADR-RES [18]): inactive | IC50 (MCF7): > 100 µM | Activity (NCI/ADR-RES [19]): 0.24% | Activity (HEK-293T [20]): Non-Toxic | inhibition (NCI-ADR-RES [21]): Active | viability at 3 µM (NCI/ADR-RES [22]): 97.5% | viability at 8 µM (NCI/ADR-RES [23]): 87.1% | Activity (NCI/ADR-RES [24]): 10.2% | EC50 (NCI/ADR-RES [25]): 0.182 µM | Activity (NCI/ADR-RES [26]): inactive | Activity (NCI/ADR-RES [27]): 16.4%
